According to patent publication USRE39723E1, “Semi-synthetic taxanes with antitumor and antiangiogenetic activities” (Indena S.p.A., priority 2000, dated 2007):

What was measured:
[1] = system: angiogenesis induced by FGF-2 adsorbed on a Matrigel pellet; assay: Matrigel test, in vivo antiangiogenetic activity (hemoglobin content in pellets); set-up: species or system C57BL6N mice; conditions: after 7 days
Description: The antiangiogenic activity was evaluated by means of the Matrigel test, in which angiogenesis is induced by FGF-2 ([…]) adsorbed on a Matrigel pellet (12.5 mg/ml, 0.5 mL) injected subcutaneously in C57BL6N mice.
The tested compound was administered through the oral route daily or through the intraperitoneal route on alternate days, at the shown concentration. After 7 days, the angiogenic response was evaluated by measuring the hemoglobin content in the pellets, according to the procedure by Drabkin.

13-[(2R, 3S)-3-iso-butyl-2-hydroxy-3-tert-butoxycarbonylamino-propanoyl]-C-seco-10-dehydro-10-deacetyl-7,9-bis-acetyl-baccatine III [Example II]
% (change of hemoglobin content) ([1]; 90 mg/kg i.p. on alternate days): −50%
Hemoglobin ([1]; 90 mg/kg i.p. on alternate days, FGF-2 Matrigel pellet s.c.): 0.015 ± 0.001 g/dL
% (change of hemoglobin content) ([1]; 150 mg/kg p.o. daily): −70%
Hemoglobin ([1]; 150 mg/kg p.o. daily, FGF-2 Matrigel pellet s.c.): 0.009 ± 0.001 g/dL

13-[(2R, 3S)-3-isobutyl-2-hydroxy-3-tert-butoxycarbonylamino-propanoyl]-C-seco-10-dehydro-10-deacetyl-7,9-bis-acetyl-baccatine III 1,14-carbonate [Example VII]
% (change of hemoglobin content) ([1]; 50 mg/kg i.p. on alternate days): −40%
Hemoglobin ([1]; 50 mg/kg i.p. on alternate days, FGF-2 Matrigel pellet s.c.): 0.014 g/dL
% (change of hemoglobin content) ([1]; 100 mg/kg p.o. daily): −70%
Hemoglobin ([1]; 100 mg/kg p.o. daily, FGF-2 Matrigel pellet s.c.): 0.009 g/dL

CC(=O)O[C@H]1C(=O)[C@@]2(C)[C@H]([C@H](OC(=O)c3ccccc3)[C@]3(O)C[C@H](OC(=O)[C@H](O)[C@@H](NC(=O)c4ccccc4)c4ccccc4)C(C)=C1C3(C)C)[C@]1(OC(C)=O)CO[C@@H]1C[C@@H]2O [Paclitaxel]
neuro-toxicity (tremors) (mouse, in vivo): induces tremors
weight loss (nude mouse with human tumor cells, dose effective in inhibiting tumor growth (same antitumor activity)): up to 20%

FGF-2: growth factor adsorbed on the Matrigel pellet to induce angiogenesis [reference compound]
Hemoglobin ([1]; FGF-2 alone (150 mg/pellet) on Matrigel pellet, no test compound): 0.03 ± 0.001 g/dL
% (change of hemoglobin content) ([1]; FGF-2 alone versus control): +300%
